The nature of data set [1]: Quantification of exchange rates (QUESP, Bloch equation fitting). Conditions: 11.7 T, pH 7.4, 37° C. The class given is physicochemical. How it is done:
Exchange rates were quantified with the saturation power dependent CEST approach (QUESP) and Bloch equation fitting (McMahon et al., Magn. Res. Med. 2006, 55, 836). For each sample, the MTRasym was measured at the imino resonance frequency for CEST saturation fields of 43, 85, 128, 170, 213, 255, 340, and 426 Hz while the saturation pulse duration was kept constant at 4000 ms. The Bloch equations were then fit numerically to these MTRasym values using MATLAB (Mathworks), and the exchange rates (kex, s^−1) were determined from the fits. Errors (95% confidence limits) were estimated using the F statistic.

Data set [2] deals with 9L^wt and 9L^HSV1-tk tumors. Kind of data set: Terminal transferase nick-end-labeling (TUNEL) of brain tumors. The class given is in vivo, mice. The conditions noted are these: 150 mg/kg, 6 hours post i.v. injection. On the procedure:
ApopTag® Plus In Situ Apoptosis Fluorescein Detection Kit (Millipore) was used for detecting degraded DNA fragments to evaluate apoptosis after the administration of compound 2. Six hours after i.v. administration of 2 (150 mg/kg body weight) mice were transcardially perfused with 10 mM PBS and 4% PFA for tissue fixation. Brains were fixed in 4% PFA overnight, cryopreserved in 30% sucrose, and followed by cryo-sectioning at 30 μm slices. Slices were post-fixed in ethanol: acetic acid (2:1) solution followed by the manufacture procedure for using the ApopTag® Plus In Situ Apoptosis Fluorescein Detection Kit (Millipore, […]).

The test system of data set [3] is 293^HSV1-tk cells. The data set is described as follows: Cell viability assay (CellTiter-Blue). The conditions noted are these: 0.5 mg/ml, 4 and 24 hours. The class given is cell-based, human. On the procedure: Cell viability assay was performed using CellTiter-Blue® Cell Viability Assay (Promega), which provides a fluorometric method for estimating the number of viable cells present in 96 well plate. HEK293FT cells transduced with the HSV1-tk (293^HSV1-tk) were plated in 96 well-plate (10,000 cells/well). Cells were incubated for a periods of 4 hours and 24 hours in the presence of ganciclovir (GCV, 0.5 mg/ml in cell medium), compound 2 (0.5 mg/ml in cell medium) and medium (as control). CellTiter-Blue® Reagent was added (20 μl/well) and plate was incubated for 3 hours at 37° C. Finally, fluorescence 560/590 nm was recorded and values obtained from probe containing wells (GCV or 2, N=4) were normalized to values of non-treated cells (control wells) to determine the % of viable cells after the incubation period.
Background: The colour change of resazurin is a common sign of viable cells or microbes.

The record followed here is patent US20160082133A1, “CHEMICAL EXCHANGE SATURATION TRANSFER (CEST) BASED MRI USING REPORTER GENES AND SUBSTRATES AND METHODS THEREOF” (The Johns Hopkins University, priority 2013, published 2016).

Entries after “also recorded” stand apart in the source; their conditions may differ.

On to `CC1(C)CN([C@H]2C[C@H](O)[C@@H](CO)O2)C(=O)NC1=O` [Compound 2, 5-Methyl-5,6-dihydrothymidine], for which the “kex of the imino proton” value in data set [1] is on record as 1.7±0.3×10^3 s^−1. In addition, in data set [1] (5 ppm for 1-3, 6 ppm for dT), the “kex, quantified exchange rates of imino and water protons” value was 1.7 ± 0.3 ×10^3 s^−1. Also, in data set [2], the “apoptosis (TUNEL staining)” value was “did not induce apoptosis; also recorded: do not induce apoptosis”. Also, in data set [3], the “toxic effect on 293^HSV1-tk cells” value is recorded as “did not show any toxic effect; also recorded: no toxic effect”.
